Assays:
[1] = Ultraviolet spectroscopy in methanol solutions; type: physicochemical; conditions: for Absorption Range: scan range 290–400 nm
Summary of the method: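 Spectra recorded from 290–400 nm in methanol (50 or 25 μM) in 1 cm quartz cuvettes. εmax taken as the slope of absorbance vs. concentration over 10–50 μM or 2.5–30 μM.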

[2] = Photostability in methanol solutions (solar light simulator); type: physicochemical; design: λmax pre-irradiation: unit not given beside the values; conditions: methanol solution; for % of initial AUC post-irradiation / λmax post-irradiation: 1h irradiation at 500 W/m2
Summary of the method: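 Compounds at 25 or 50 µM in methanol, in stoppered quartz cuvettes, were irradiated 1 h at 500 W/m^2 (UV dose 218 kJ/m^2). A solar simulator filtered below 290 nm with an IR block was used. UV absorption spectra before and after irradiation were compared, with UPLC-MS/MS analysis, in duplicate.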

[3] = Ames MPF Penta 2 microplate mutagenicity assay, E. coli; type: cell-based; conditions: Escherichia coli, read-out: FIB (fold induction over baseline)
Description: (§1) The assay is a liquid microplate modification of the traditional Salmonella test. During the procedure, bacteria are exposed to different concentrations of a test compound for 90 min in a medium containing sufficient histidine (S. typhimurium) or tryptophan (E. coli) to support cell divisions. Then, the cultures are diluted in pH indicator medium lacking histidine or tryptophan and aliquoted into 48 wells of a 384-well plate. Within 48 hours, cells that have undergone reversion to amino acid prototrophy will grow into colonies. Bacterial metabolism reduces pH of the medium, changing the color of that well from purple to yellow (https://www.xenometrix.ch).
(§2) The following strains were used in the study: S. typhimurium TA98, TA100, TA1535, TA1537 and E. coli wp2 uvrA[pKM101]. TA100, TA1535 and E. coli strains are used for the detection of base substitution mutations, whereas TA98 and TA1537 are utilized for the detection of frameshift mutations. S. typhimurium strains have GC base pairs, whereas E. coli strain has AT base pair at their primary reversion site and detect certain oxidizing mutagens, cross-linking agents and hydrazines.
(§3) The test procedure provided by Xenometrix (https://www.xenometrix.ch) and described earlier was followed. Briefly, the bacterial strains were grown overnight in exposure medium and exposed to test compounds 4g and 3b in 24-well plates for 90 min at 37 °C with agitation in the absence (–S9) or presence (+S9) of 4.5% phenobarbital/ β-naphthoflavone-induced rat liver S9. Compounds 4g and 3b were dissolved in DMSO and tested at final concentrations of 0.1, 0.2 and 0.5 mM. After the preincubation, the cultures were diluted in the indicator medium and the contents of each 24-well culture were distributed into 48 wells on a 384-well plate and incubated further for 48 h at 37 °C without agitation. After the exposure, the number of wells containing bacteria was scored by eye for yellow wells. Positive and negative controls were included in the assay, and all doses were done in triplicate.
(§4) Pure DMSO was used as the negative control.
(§5) The fold increase of revertants relative to the solvent control was determined by dividing the mean number of positive wells at each dose by the solvent control at baseline. The solvent control at baseline was defined as the mean number of positive wells in the solvent control plus one standard deviation (SD). When an increase of more than 2-fold relative to the baseline at more than one dose with a dose–response is observed the sample is classified as positive, whereas when no response >2 times the baseline and no dose–response is stated the sample is negative.

[4] = Ames MPF Penta 2 microplate mutagenicity assay, TA100; type: cell-based; conditions: Salmonella typhimurium, read-out: FIB (fold induction over baseline)
Description: as §1, §2, §3, §4, §5

[5] = Ames MPF Penta 2 microplate mutagenicity assay, TA1537; conditions: Salmonella typhimurium, FIB (fold induction over baseline)
Description: as §1, §2, §3, §4, §5

[6] = Ames MPF Penta 2 microplate mutagenicity assay, TA98; type: cell-based; conditions: Salmonella typhimurium, read-out: FIB (fold induction over baseline)
Description: as §1, §2, §3, §4, §5

[7] = Ames MPF Penta 2 microplate mutagenicity assay, TA1535; conditions: Salmonella typhimurium, FIB (fold induction over baseline)
Description: as §1, §2, §3, §4, §5

[8] = E. coli wp2 uvrA[pKM101] without S9 (–S9), E. coli WP2, –S9, 0.1 mM
[9] = E. coli wp2 uvrA[pKM101] without S9 (–S9), E. coli WP2, –S9, 0.2 mM
[10] = E. coli wp2 uvrA[pKM101] without S9 (–S9), E. coli WP2, –S9, 0.5 mM
[11] = S. typhimurium TA100 without S9 (–S9), TA100, –S9, 0.1 mM
[12] = S. typhimurium TA100 without S9 (–S9), TA100, –S9, 0.2 mM
[13] = S. typhimurium TA100 without S9 (–S9), TA100, –S9, 0.5 mM
[14] = S. typhimurium TA98 without S9 (–S9), TA98, –S9, 0.1 mM
[15] = S. typhimurium TA98 without S9 (–S9), TA98, –S9, 0.2 mM
[16] = S. typhimurium TA98 without S9 (–S9), TA98, –S9, 0.5 mM

Compound	εmax [1] [M⁻¹ cm⁻¹]	λmax [1] [nm]	Absorption Range [1]	λmax pre-irradiation [2]	% of initial AUC post-irradiation [2] [%]	λmax post-irradiation [2]	fold induction at 90 min, 0.1 mM [3, 8]	fold induction at 90 min, 0.2 mM [3, 9]	fold induction at 90 min, 0.5 mM [3, 10]	fold induction at 90 min, 0.1 mM ([3]; E. coli WP2, +S9, 0.1 mM)	fold induction at 90 min, 0.2 mM ([3]; E. coli WP2, +S9, 0.2 mM)	fold induction at 90 min, 0.5 mM ([3]; E. coli WP2, +S9, 0.5 mM)	fold induction at 90 min, 0.1 mM [4, 11]	fold induction at 90 min, 0.2 mM [4, 12]	fold induction at 90 min, 0.5 mM [4, 13]	fold induction at 90 min, 0.1 mM ([4]; TA100, +S9, 0.1 mM)	fold induction at 90 min, 0.2 mM ([4]; TA100, +S9, 0.2 mM)	fold induction at 90 min, 0.5 mM ([4]; TA100, +S9, 0.5 mM)	fold induction at 90 min, 0.1 mM ([5]; TA1537, +S9, 0.1 mM)	fold induction at 90 min, 0.2 mM ([5]; TA1537, +S9, 0.2 mM)	further results
CCOC(=O)CN1C(=O)/C(=C/c2ccc(OC)cc2)N(CC(=O)OCC)C1=O [Compound 3b, Diethyl 2,2′-((Z)-4-(4-methoxybenzylidene)-2,5-dioxoimidazolidine-1,3-diyl)diacetate]	16310	318	290–362 nm	318	114.39	326	0.3	0.7	0.3	0.7	0.6	0.4	1.1	0.8	0.7	0.7	0.6	0.6	1.1	1.1	percentage of photoisomer formation ([2]; post-irradiation chromatogram): 28.4%; fold induction at 90 min, 0.5 mM ([5]; TA1537, +S9, 0.5 mM): 0.3; fold induction at 90 min, 0.1 mM ([5]; TA1537, –S9, 0.1 mM): 0.3; fold induction at 90 min, 0.2 mM ([5]; TA1537, –S9, 0.2 mM): 0.3; fold induction at 90 min, 0.5 mM ([5]; TA1537, –S9, 0.5 mM): 0.3; fold induction at 90 min, 0.1 mM [6, 14]: 0.9; fold induction at 90 min, 0.2 mM [6, 15]: 0.2; fold induction at 90 min, 0.5 mM [6, 16]: 0.9; fold induction at 90 min, 0.1 mM ([6]; TA98, +S9, 0.1 mM): 0.2; fold induction at 90 min, 0.2 mM ([6]; TA98, +S9, 0.2 mM): 0.4; fold induction at 90 min, 0.5 mM ([6]; TA98, +S9, 0.5 mM): 0.3; fold induction at 90 min, 0.1 mM ([7]; TA1535, +S9, 0.1 mM): 0.5; fold induction at 90 min, 0.2 mM ([7]; TA1535, +S9, 0.2 mM): 0.1; fold induction at 90 min, 0.5 mM ([7]; TA1535, +S9, 0.5 mM): 0.1; fold induction at 90 min, 0.1 mM ([7]; TA1535, –S9, 0.1 mM): 0.8; fold induction at 90 min, 0.2 mM ([7]; TA1535, –S9, 0.2 mM): 0.6; fold induction at 90 min, 0.5 mM ([7]; TA1535, –S9, 0.5 mM): 1.7
CCOC(=O)CN1C(=O)/C(=C/C=C/c2ccc(OC)cc2)N(CC(=O)OCC)C1=O [Compound 4g, Diethyl 2,2′-((Z)-4-((E)-3-(4-methoxyphenyl)allylidene)-2,5-dioxoimidazolidine-1,3-diyl)diacetate]	54996	379	290–400 nm	379	80.15	378	0.3	1.3	1.3	0.6	1	0.7	1.1	0.3	0.6	0.7	0.5	0.5	1.4	1.1	decrease of AUC after irradiation [2]: 19.9%; fold induction at 90 min, 0.5 mM ([5]; TA1537, +S9, 0.5 mM): 0.8; fold induction at 90 min, 0.1 mM ([5]; TA1537, –S9, 0.1 mM): 0.3; fold induction at 90 min, 0.2 mM ([5]; TA1537, –S9, 0.2 mM): 1.7; fold induction at 90 min, 0.5 mM ([5]; TA1537, –S9, 0.5 mM): 0.5; fold induction at 90 min, 0.1 mM [6, 14]: 0.5; fold induction at 90 min, 0.2 mM [6, 15]: 0.9; fold induction at 90 min, 0.5 mM [6, 16]: 0.2; fold induction at 90 min, 0.1 mM ([6]; TA98, +S9, 0.1 mM): 0.3; fold induction at 90 min, 0.2 mM ([6]; TA98, +S9, 0.2 mM): 0.4; fold induction at 90 min, 0.5 mM ([6]; TA98, +S9, 0.5 mM): 0.6; fold induction at 90 min, 0.1 mM ([7]; TA1535, +S9, 0.1 mM): 0.3; fold induction at 90 min, 0.2 mM ([7]; TA1535, +S9, 0.2 mM): 0.7; fold induction at 90 min, 0.5 mM ([7]; TA1535, +S9, 0.5 mM): 0.3; fold induction at 90 min, 0.1 mM ([7]; TA1535, –S9, 0.1 mM): 0.3; fold induction at 90 min, 0.2 mM ([7]; TA1535, –S9, 0.2 mM): 1.4; fold induction at 90 min, 0.5 mM ([7]; TA1535, –S9, 0.5 mM): 0.6
